ChEMBL document CHEMBL1795345, “Significant enhancement in radical-scavenging activity of curcuminoids conferred by acetoxy substituent at the central methylene carbon” (Bioorg Med Chem, 2011)

Tests used:
[1] = test system: Radical scavenging activity; experiment: Antioxidant activity assessed as DPPH radical scavenging activity; assay type: functional
[2] = test system: Radical scavenging activity; experiment: Antioxidant activity assessed as reduction in compound induced DPPH radical scavenging activity at 100 uM in presence of 100 mM acetic acid measured 30 mins after mixing compound with DPPH; assay type: functional; design: scale not given: the % may be the effect or the level left

COc1ccc(/C=C/C(=O)/C=C(O)/C=C/c2ccc(OC)c(OC)c2)cc1OC [DIMETHYLCURCUMIN]
EC50 [1]: > 100 µM

COc1cc(/C=C/C(=O)/C(OC(C)=O)=C(O)/C=C/c2ccc(O)c(OC)c2)ccc1O
EC50 [1]: 8.7 µM
Activity [2]: 10%

CO/C(C(=O)/C=C/c1ccc(OC)c(OC)c1)=C(O)\C=C\c1ccc(OC)c(OC)c1
EC50 [1]: 75.5 µM

COc1cc(/C=C/C(=O)CC(=O)/C=C/c2ccc(O)c(OC)c2)ccc1O [CURCUMIN]
EC50 [1]: 22.6 µM
Activity [2]: 10%

CC(=O)O/C(C(=O)/C=C/c1ccc(O)cc1)=C(O)\C=C\c1ccc(O)cc1
EC50 [1]: 26.3 µM
Activity [2]: 13%

COc1cc(/C=C/C(=O)/C(OC(C)=O)=C(O)/C=C/c2cc(O)c(O)c(OC)c2)cc(O)c1O
EC50 [1]: 2.9 µM

CC(=O)O/C(C(=O)/C=C/c1ccccc1)=C(O)\C=C\c1ccccc1
EC50 [1]: 47.8 µM
Activity [2]: 25%

C=CC/C(C(=O)/C=C/c1ccc(OC)c(OC)c1)=C(O)\C=C\c1ccc(OC)c(OC)c1
EC50 [1]: > 100 µM

COc1ccc(/C=C/C(=O)/C(OC(C)=O)=C(O)/C=C/c2ccc(OC)c(OC)c2)cc1OC
EC50 [1]: 22.1 µM
Activity [2]: 25%

O=C(/C=C(O)/C=C/c1ccccc1)/C=C/c1ccccc1
EC50 [1]: > 100 µM

COc1ccc(/C=C/C(=O)/C=C(O)/C=C/c2ccc(OC)cc2)cc1
EC50 [1]: > 100 µM

COc1ccc(/C=C/C(=O)/C(OC(C)=O)=C(O)/C=C/c2ccc(OC)cc2)cc1
EC50 [1]: 32.8 µM
Activity [2]: 25%

CCOC(=S)S/C(C(=O)/C=C/c1ccc(OC)c(OC)c1)=C(O)\C=C\c1ccc(OC)c(OC)c1
EC50 [1]: > 100 µM

COc1cc(/C=C/C(=O)/C(OC(C)=O)=C(O)/C=C/c2cc(OC)c(OC)c(OC)c2)cc(OC)c1OC
EC50 [1]: 27.4 µM
Activity [2]: 25%

COc1cc(/C=C/C(=O)/C(C)=C(O)/C=C/c2ccc(O)c(OC)c2)ccc1O
EC50 [1]: 23.2 µM

COc1ccc(/C=C/C(=O)/C(C)=C(O)/C=C/c2ccc(OC)c(OC)c2)cc1OC
EC50 [1]: > 100 µM

CO/C(C(=O)/C=C/c1ccc(O)c(OC)c1)=C(O)\C=C\c1ccc(O)c(OC)c1
EC50 [1]: 30.3 µM

CCOC(=S)S/C(C(=O)/C=C/c1ccc(O)c(OC)c1)=C(O)\C=C\c1ccc(O)c(OC)c1
EC50 [1]: 29.7 µM

COc1cc(/C=C/C(=O)/C=C(O)/C=C/c2cc(O)c(O)c(OC)c2)cc(O)c1O
EC50 [1]: 11.3 µM

C=CC/C(C(=O)/C=C/c1ccc(O)c(OC)c1)=C(O)\C=C\c1ccc(O)c(OC)c1
EC50 [1]: 23.2 µM

O=C(/C=C/c1ccc(O)cc1)CC(=O)/C=C/c1ccc(O)cc1 [BISDEMETHOXYCURCUMIN]
EC50 [1]: > 100 µM

O=C1O[C@H]([C@@H](O)CO)C(O)=C1O [ASCORBIC ACID]
EC50 [1]: 15.7 µM
